Data taken from PMC10778976, “BAY-3827 and SBI-0206965: Potent AMPK Inhibitors That Paradoxically Increase Thr172 Phosphorylation” (International Journal of Molecular Sciences, 2023).

Legend:
[1] = system: phosphorylation of Thr172 on AMPK-α in U2OS cells; experiment: AMPK Thr172 phosphorylation in U2OS cells (Western blot); type: cell-based, human
Description: T-Rex U2OS cells carrying a Flp Recombinase Target (FRT) site were generated as described previously and grown in Dulbecco’s Modified Eagle’s Medium (DMEM) supplemented with 10% (v/v) FBS and 1% (v/v) penicillin/streptomycin.
Cells were lysed rapidly in situ on culture plates using ice-cold lysis medium containing phosphatase inhibitors, as described previously.
SDS-PAGE was performed using precast NuPAGE Tris-acetate 3–8% gradient polyacrylamide gels in Tris-acetate running buffer when analyzing ACC, GBF1, or Raptor, or NuPAGE Bis-Tris 4–12% gradient polyacrylamide gels in the MOPS buffer system (ThermoFisher Scientific, Waltham, MA, USA) for other proteins (unless stated otherwise). Proteins were transferred to nitrocellulose membranes using the iBlot 2 system (ThermoFisher Scientific). Membranes were enhanced if necessary using SuperSignal Western Blot Enhancer (ThermoFisher Scientific), then blocked for 1 h in Li-Cor Odyssey blocking buffer. The membranes were probed with the appropriate primary antibody ([…]) overnight at 4 °C. Detection was performed using secondary antibody or streptavidin probe (for total ACC) coupled to IR 680 or IR 800 dye, and the membranes were scanned using the LICOR Odyssey IR imager. Protein concentrations were determined by Coomassie Blue binding with bovine serum albumin as a standard. The cellular levels of AMP and ATP were determined via direct perchloric acid extraction from cells, with LC:MS used to estimate the levels of each nucleotide.

[2] = system: endogenous AMPK from HEK-293 cells; experiment: Protection of immunoprecipitated AMPK against inactivation by PP2Cα (PPM1A); type: biochemical, human; settings: immunoprecipitated AMPK, 10 min 30 °C; read-out: half-maximal effect on protection against inactivation by PPM1A
Description: AMPK was immunoprecipitated from HEK-293 cell lysate (2.5 mg of lysate protein) using a mixture of anti-α1 and -α2 antibodies. After extensive washing as in Section 4.5, aliquots equivalent to 80 µg of lysate protein were incubated in a shaking incubator at 30 °C for 10 min in Hepes buffer (50 mM Na Hepes, pH 7.4, 150 mM NaCl, 1 mM dithiothreitol, 0.02% (w/v) Brij-35) with 50 mM MgCl2 and sufficient PPM1A to yield about 80% inactivation, in the presence or absence of 200 µM AMP or the indicated concentration of BAY-3827 or SBI-0206965 (total volume 50 µL). The reaction was terminated by adding 1 mL of IP buffer (50 mM Tris/HCl, pH 7.4 at room temperature, 150 mM NaCl, 1 mM EDTA, 1 mM EGTA, 5 mM Na pyrophosphate, 50 mM NaF, 1 mM dithiothreitol, 0.1% (v/v) Triton X-100) and, after additional washing in the same buffer and a final wash into Hepes buffer, AMPK activity was determined using kinase assays as above.

[3] = target: T1, LKB1 (human LKB1:STRADα:MO25α complex) (Homo sapiens, UniProt Q15831); experiment: LKB1 activity using LKBtide peptide; type: biochemical; settings: LKBtide substrate
T1 construct: made in house
T1 sequence (Q15831 1-433): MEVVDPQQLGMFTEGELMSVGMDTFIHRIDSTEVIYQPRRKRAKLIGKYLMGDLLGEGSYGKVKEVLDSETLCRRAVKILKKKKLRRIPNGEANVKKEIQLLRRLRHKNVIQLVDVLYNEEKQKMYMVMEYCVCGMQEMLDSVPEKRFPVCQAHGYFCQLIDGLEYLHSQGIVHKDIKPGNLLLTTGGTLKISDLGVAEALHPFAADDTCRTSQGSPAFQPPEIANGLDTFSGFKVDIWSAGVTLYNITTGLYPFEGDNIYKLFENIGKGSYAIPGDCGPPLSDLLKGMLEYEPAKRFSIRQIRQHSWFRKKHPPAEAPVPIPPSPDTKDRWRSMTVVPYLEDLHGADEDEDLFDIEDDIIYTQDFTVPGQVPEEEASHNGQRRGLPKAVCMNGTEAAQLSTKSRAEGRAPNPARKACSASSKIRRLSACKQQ
T1 sequence (Q7RTN6 1-431 partner): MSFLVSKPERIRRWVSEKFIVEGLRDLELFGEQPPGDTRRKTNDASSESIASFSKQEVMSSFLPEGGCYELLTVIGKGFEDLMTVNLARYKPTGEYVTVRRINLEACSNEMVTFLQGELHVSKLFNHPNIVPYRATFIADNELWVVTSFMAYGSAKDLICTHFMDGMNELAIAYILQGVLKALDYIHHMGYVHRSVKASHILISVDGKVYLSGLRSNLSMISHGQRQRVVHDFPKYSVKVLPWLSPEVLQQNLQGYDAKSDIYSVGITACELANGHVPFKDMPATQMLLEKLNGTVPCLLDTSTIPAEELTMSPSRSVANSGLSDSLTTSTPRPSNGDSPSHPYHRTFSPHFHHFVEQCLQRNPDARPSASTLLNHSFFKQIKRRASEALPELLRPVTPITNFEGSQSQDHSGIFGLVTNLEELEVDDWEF
T1 sequence (Q9Y376 1-341 partner): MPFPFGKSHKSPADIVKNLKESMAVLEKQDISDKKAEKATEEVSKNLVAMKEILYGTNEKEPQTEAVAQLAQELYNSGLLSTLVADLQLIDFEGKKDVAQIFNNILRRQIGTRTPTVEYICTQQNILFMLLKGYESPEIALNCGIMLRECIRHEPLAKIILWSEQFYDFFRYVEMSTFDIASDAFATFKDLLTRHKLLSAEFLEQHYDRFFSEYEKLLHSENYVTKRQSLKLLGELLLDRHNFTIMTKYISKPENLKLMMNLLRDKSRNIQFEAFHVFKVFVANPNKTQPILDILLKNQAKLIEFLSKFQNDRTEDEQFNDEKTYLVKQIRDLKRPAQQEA
Description: To directly determine LKB1 activity, kinase assays were performed in the presence or absence of the indicated concentration of BAY-3827 or SBI-0206965 as for AMPK, except that LKBtide was used as a peptide substrate. PPM1A activity was determined using p-nitrophenyl phosphate (pNPP) as a substrate. PPM1A (5 µg) was incubated with 50 mM pNPP and 50 mM MgCl2 in Hepes buffer in the presence of a vehicle or the indicated concentration of BAY-3827 or SBI-0206965 for 10 min at 30 °C. The reaction was quenched by the addition of 1 mL of 0.5 M EDTA and the amount of product, p-nitrophenol, determined by measuring absorbance at 405 nm.

EC50 ([1]; Homo sapiens, read-out: EC50, half-maximal increase of Thr172 phosphorylation) | effect on LKB1 activity ([3]; all concentrations used) | Compound | maximum increase of Thr172 phosphorylation ([1]; pThr172:total AMPK relative to control) | EC50 [2] | increase of Thr172 phosphorylation, maximal effect at low concentrations ([1]; 3–30 µM) | increase of Thr172 phosphorylation at high concentrations ([1]; 100–300 µM, not saturated) | IC50 ([3]; read-out: IC50, inhibition of LKB1 activity)
164 nM | no inhibition | CCc1ccccc1C(=O)Nc1n[nH]c2c(C)c(F)c(C3C(C#N)=C(C)N(C)C(C)=C3C#N)cc12 [BAY-3827] | 9.7 fold | 7 nM |  |  | 
 |  | CNC(=O)c1ccccc1Oc1nc(Nc2cc(OC)c(OC)c(OC)c2)ncc1Br [SBI-0206965] |  | 290 nM | about 2 fold | 4 fold | 6100 nM
